US6664400B2 (dated 2003)

- melting point: 168 to 170 °C
Structure (SMILES): O=C1[C@H]2C[C@H](F)CN2C(=O)N1c1cc(NS(=O)(=O)CCl)c(Cl)cc1F
